Assays:
Test in all cases: relative viability (nuclei count vs DMSO), 5 days (fraction); higher = more cells survive
[1] = compound: CCC1=CN=CN=C1N2CCN(CC2)CC3=NC4=C(N3)C=C(C=C4)C(F)(F)F
Method in brief: (§1)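 Nuclei counted with MetaXpress define viability as the ratio of treated to vehicle wells, given as a median across plates. The lung cancer cell lines were in 1536-well plates, pinned with five √10-spaced library-drug doses and imaged at 4× after 5 days and Hoechst staining. Plates passed with control CV below 25% and at least one doubling.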

[2] = compound: CCn1c(-c2nonc2N)nc2cnc(Oc3cccc(NC(=O)c4ccc(OCCN5CCOCC5)cc4)c3)cc21
Method in brief: as §1

Mirin = compound: N=C1NC(=O)/C(=C/c2ccc(O)cc2)S1 [Mirin]
Method in brief: as §1

[3] = compound: CCC1=CN=CN=C1N2CCN(CC2)CC3=NC4=C(N3)C=C(C=C4)C(F)(F)F + Cc1nc(NC(=O)N2CCC[C@H]2C(N)=O)sc1-c1ccnc(C(C)(C)C(F)(F)F)c1 [Alpelisib] (partner 2 µM)
Method in brief: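 Dosing by pin tool came one day after lung cancer cell lines were seeded in 1536-well plates, using either one drug or a fixed anchor-drug dose plus five library-drug doses (not always all listed) in √10 steps. After 5 days, nuclei were counted on 4× images. Relative viability is treated-well nuclei count divided by vehicle-well nuclei count, and values are medians of duplicate plates.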

Cell Line | relative viability ([1]; 0.04 µM) | relative viability ([1]; 0.1265 µM) | relative viability ([1]; 0.4 µM) | relative viability ([1]; 1.265 µM) | relative viability ([1]; 4 µM) | relative viability ([2]; 0.04 µM) | relative viability ([2]; 0.1265 µM) | relative viability ([2]; 0.4 µM) | relative viability ([2]; 1.265 µM) | relative viability ([2]; 4 µM) | relative viability (Mirin; 0.25 µM) | relative viability (Mirin; 0.7906 µM) | relative viability (Mirin; 2.5 µM) | relative viability (Mirin; 7.906 µM) | relative viability (Mirin; 25 µM) | relative viability ([3]; first compound 0.04 µM) | relative viability ([3]; first compound 0.1265 µM) | relative viability ([3]; first compound 0.4 µM) | relative viability ([3]; first compound 1.265 µM) | relative viability ([3]; first compound 4 µM)
Calu-6 | 1 | 0.986 | 0.953 | 0.898 | 0.925 | 1.05 | 1.02 | 0.841 | 0.604 | 0.549 | 1.02 | 1.07 | 1.06 | 0.923 | 0.987 | 0.891 | 0.923 | 0.86 | 0.822 | 0.86
NCI-H322M | 1.05 | 0.95 | 0.935 | 0.729 | 1.01 | 1.22 | 1.17 | 0.882 | 0.656 | 0.72 | 0.99 | 0.867 | 0.967 | 1.19 | 0.944 | 0.741 | 0.892 | 0.749 | 0.705 | 0.748
NCI-H1395 | 0.837 | 0.86 | 0.943 | 0.769 | 0.892 | 1.13 | 0.837 | 0.769 | 0.469 | 0.563 | 0.948 |  | 0.964 | 0.925 | 0.841 | 1.04 | 1.1 | 1.05 | 0.951 | 1.04
NCI-H650 | 0.776 | 0.958 | 0.994 | 0.918 | 0.958 | 1.1 | 0.761 | 0.391 | 0.359 | 0.417 | 1.03 | 0.737 | 0.929 |  | 1.13 | 1.02 | 1.1 | 0.968 | 0.997 | 0.965
NCI-H661 | 0.996 | 0.973 | 0.955 | 0.967 | 0.971 | 0.998 | 0.969 | 0.957 | 0.82 | 0.611 | 0.988 | 1.09 | 1.03 | 0.974 | 1.01 | 0.561 | 0.512 | 0.506 |  | 0.57
NCI-H1703 | 0.953 | 0.914 | 0.819 | 0.73 | 0.968 | 1.02 | 0.809 | 0.616 | 0.635 | 0.41 | 1.07 | 0.925 | 0.966 |  | 0.83 | 0.462 | 0.401 | 0.358 | 0.25 | 0.535
EKVX | 1.03 | 0.806 | 0.933 | 0.782 | 1.04 | 1.24 | 0.957 | 0.932 | 0.87 | 0.855 | 0.962 | 0.905 | 1.09 | 0.925 | 0.986 | 0.875 | 0.828 | 0.762 | 0.699 | 0.866
EBC-1 | 1.08 | 1.01 | 0.986 | 0.946 | 0.996 | 1.24 | 1.01 | 0.913 | 0.904 | 0.797 | 1.09 | 1.19 | 1.05 | 0.987 | 0.665 | 0.962 | 0.769 | 0.796 | 0.697 | 1.03
NCI-H520 | 0.953 | 0.902 | 0.962 | 0.746 | 1.02 | 1.24 | 1.05 | 0.978 | 0.567 | 0.511 | 1 | 0.882 | 1.02 | 0.808 | 0.709 | 1.08 | 0.883 | 0.838 | 0.765 | 1.01
LCLC-97TM1 | 0.849 | 0.95 | 1 | 1 | 0.95 | 1.37 | 1.1 |  | 0.899 | 1.03 | 1.1 | 0.706 | 1.13 | 0.621 | 0.677 | 0.239 | 0.266 | 0.246 | 0.314 | 0.192
COR-L23 | 0.985 | 0.989 | 0.937 | 0.932 | 0.922 | 1.1 | 0.846 | 0.497 | 0.252 | 0.19 | 1.04 | 1.13 | 1.09 | 1.06 | 1.02 | 0.899 | 0.721 | 0.886 | 0.702 | 0.783
NCI-H1355 | 1.01 | 0.935 | 0.918 | 0.931 | 1.04 | 1.04 | 1 | 0.776 | 0.632 | 0.487 | 0.997 | 0.982 | 0.949 | 0.942 | 1.08 | 0.815 | 0.74 | 0.807 | 0.732 | 0.797
NCI-H1666 | 0.99 | 0.929 | 0.952 | 0.962 | 0.944 | 1.13 | 1.15 | 1.04 | 0.607 | 0.628 | 1.05 | 1.04 | 0.987 | 0.889 | 0.892 | 0.877 | 0.913 | 0.903 | 0.851 | 0.95
EPLC-272H | 0.801 | 0.979 | 0.87 | 0.797 | 0.793 | 1.26 | 1.01 | 0.873 | 0.705 | 0.74 | 0.944 |  | 0.945 | 0.762 | 0.721 | 0.795 | 0.85 | 0.813 | 0.979 | 0.981
NCI-H1651 | 1.08 | 0.961 | 0.978 | 0.909 | 0.988 | 1.05 | 1.01 | 0.826 | 0.7 | 0.648 | 0.962 | 0.973 | 1.03 | 0.866 | 0.918 | 1.01 | 0.961 | 0.876 | 0.818 | 0.907
NCI-H2087 | 1.05 | 0.958 | 0.973 | 0.854 | 0.716 | 1.21 | 0.812 | 0.844 | 0.698 | 0.637 | 1.01 | 1 | 0.983 | 0.896 | 1.2 | 1.01 | 0.881 | 1.05 | 0.805 | 0.809

Source: the supplement of paper PMC10307832
